In paper PMC5563080, “The High-Affinity Interaction between ORC and DNA that Is Required for Replication Licensing Is Inhibited by 2-Arylquinolin-4-Amines” (Cell Chemical Biology, 2017) one finds IC50 data, which are given here for five compounds.

One may read the IC50 as the midpoint of a concentration-inhibition curve. A lower IC50 goes with greater potency in that assay.

The subject of this assay is U2OS. The experiment in a line: cells. Also on record: Inhibition of MCM4 chromatin loading (replication licensing) in synchronised U2OS cells, immunofluorescence high-content imaging. Conditions: Homo sapiens, 8 h, MCM4 DNA binding. On the procedure:
We used these changes to design a high-throughput assay for licensing inhibitors (Figure 1B). Human U2OS cells were released into S phase from a double-thymidine block (Figures S1A–S1C) and then treated with RO3306, a CDK1 inhibitor, to reversibly block them in G2 (Figure S1D). RO3306 was removed and cells were seeded into 384-well plates containing test compounds (Figure S1E). Eight hours later, when cells should have passed through mitosis and loaded MCM2–7, cells were fixed and immunostained for DNA-bound MCM4 and also treated with DAPI to stain total DNA (Figure S1F). Microscopic images of each treatment (Figures 1C and 1D) were taken on an InCell 1000 system, which returned values for MCM4 and DNA content for each of the cells identified. To avoid any confounding effects of RO3306 treatment, we then retested these 280 compounds using a low-throughput screen whereby cells were synchronized by mitotic shake-off prior to exposure with test compounds. This low-throughput assay also has the advantage of removing cells that suffer non-specific inhibition by test compounds, as only metabolically active cells can re-adhere to the plates. Sixteen compounds produced a reproducible reduction (>60%) of DNA-bound MCM4 in this assay. These 16 compounds fell into eight discrete chemical families, which we named RL1 to RL8. After resynthesis and re-assay, we decided to take 12 of these 16 compounds forward for further study: RL1a, RL1b, RL2, RL3a, RL3b, RL4, RL5a–RL5e, and RL8. […] Microscopic images (6 fields / well) of each treatment were taken on an InCell 1000 system (GE healthcare) using a 20x objective. ActivityBase from ID Business Solutions was used for the data processing and analysis, returning values for Mcm4 and DNA content for each of the cells identified. Figure S6 details the plate maps used for the assay. A Quality Control plate was included for every three assay plates (Figure S6), where columns 1-12 were low control wells (+ R03306 + 1% DMSO) and columns 13-24 were high control well (+Media + 1% DMSO). The performance of the assay on each screening plate was evaluated using internal controls. The criteria for data acceptance of an assay plate were signal to background (mean Hi Control) / (mean Lo Control) >1.5; Z-prime (1 - (3 x Lo Control Standard Deviation + 3 x SD Hi Control Standard Deviation) / (mean Hi Control - mean Lo Control)) >0.3. The statistics from all assay plates and Quality Control plates were analysed. The screen performance indicators were: signal to background 2.4±0.53 and Z-prime 0.47±0.10.
For `CCN(CC)CCNc1nc(-c2cccc(Cl)c2)nc2ccccc12` [RL5d], the IC50 came to 32 µM. Consider `Cc1c(C)n(-c2nc3ccccc3s2)c2ncnc(NCCN(C)C)c12` [RL5e], for which the IC50 worked out at 7 µM.

Compound `CN(C)CCNc1cc(-c2ccco2)nc2ccccc12` [RL5a] had an IC50 of 8 µM. `CN(C)CCNc1nc(-c2ccncc2)nc2ccccc12` [RL5c] showed an IC50 of 59 µM. The compound `CN(C)CCNc1cc(-c2cccs2)nc2ccccc12` [RL5b] yielded an IC50 of 22 µM.
